The subject of test [1] is phosphorylation of ERK (Thr202/Tyr204). Description: ERK phosphorylation inhibitory activity, cell ELISA, PA-TU-8902. The class given is cell-based. The conditions noted are these: Homo sapiens, PaTu 8902, 24 h, read-out: IC50 (ERK phosphorylation inhibition).
Test [2] concerns the target T1, RAS G12D (Homo sapiens, UniProt P01116, G12D).
T1 construct: host or cells: AsPC-1 human pancreatic cancer cells
Description: RAS G12D degradation activity, Cell ELISA, AsPC-1. The class given is cell-based. The settings on record: AsPC-1 cells, 24 hours; read-out: DC50 (RAS G12D 50% degradation value).

For one compound, IC50 and DC50 results are on record in US20260049072A1, “HETEROCYCLIC COMPOUND FOR INDUCING DEGRADATION OF MUTANT KRAS PROTEIN” (Astellas Pharma Inc., priority 2022, published 2026).

A word on the pIC50: it is the negative decadic logarithm of the IC50, by convention in mol/L. What is called DC50 is the midpoint of the concentration-degradation curve.

pIC50: −log10 of the molar value.

T1 sequence (P01116 1-188 isoform P01116-2 G12D): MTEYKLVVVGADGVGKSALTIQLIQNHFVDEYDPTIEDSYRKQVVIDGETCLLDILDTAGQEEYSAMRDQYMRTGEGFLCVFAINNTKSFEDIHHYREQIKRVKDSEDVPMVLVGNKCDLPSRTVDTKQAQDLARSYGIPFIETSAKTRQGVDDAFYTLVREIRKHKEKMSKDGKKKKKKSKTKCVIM

For `CO[C@@H](C)COc1nc(OC2CN(C(=O)NCCN(C)C)C2)c2cc(C3CC3)c(-c3c(C)c(F)cc4[nH]ncc34)c(OCc3ccc(C(=O)N[C@H](C(=O)N4C[C@H](O)C[C@H]4C(=O)N[C@@H](CO)c4ccc(-c5scnc5C)cc4)C(C)C)cc3)c2n1` [Example 40, N-{4-[({(7M)-6-cyclopropyl-4-[(1-{[2-(dimethylamino)ethyl]carbamoyl}azetidin-3-yl)oxy]-7-(6-fluoro-5-methyl-1H-indazol-4-yl)-2-[(2S)-2-methoxypropoxy]quinazolin-8-yl}oxy)methyl]benzoyl}-L-valyl-(4R)-4-hydroxy-N-{(1R)-2-hydroxy-1-[4-(4-methyl-1,3-thiazol-5-yl)phenyl]ethyl}-L-prolinamide], the pIC50 in test [1] was 7.28. Further, the DC50 in test [2] is 47 nM.
